# Source: patent publication US20110053925A1, “Hydroxamate-Based Inhibitors of Deacetylases” (Novartis AG, priority 2009, published 2011)
# Target: T1, HDAC-1 (Homo sapiens, UniProt Q13547)
# T1 construct: made in house; host or cells: Sf9 or Sf21 insect cells (baculovirus, donor vector pFB-GSTX3)
# Assay: HDAC Inhibition Assay (purified GST-HDAC protein)
# Format: biochemical
# Excerpt: The baculovirus donor vector pFB-GSTX3 is used to generate a recombinant baculovirus that can express the HDAC polypeptide. Transfer vectors containing the HDAC coding region are transfected into the DH10Bac cell line (GIBCO) and plated on selective agar plates. Colonies without insertion of the fusion sequence into the viral genome (carried by the bacteria) are blue. Single, white colonies are picked and viral DNAs (bacmid) are isolated from the bacteria by standard plasmid purification procedures. Sf9 cells or Sf21 (American Type Culture Collection) cells are then transfected in […] flasks with the viral DNA using Cellfectin reagent.
# Virus-containing media is collected from the transfected cell culture and used for infection to increase its titer. Virus-containing media obtained after two rounds of infection is used for large-scale protein expression. For large-scale protein expression 100 cm^2 round tissue culture plates are seeded with 5×10^7 cells/plate and infected with 1 mL of virus-containing media (at an approximately MOI of 5). After 3 days, the cells are scraped off the plate and centrifuged at 500 rpm for 5 minutes. Cell pellets from 10-20, 100 cm^2 plates, are re-suspended in 50 mL of ice-cold lysis buffer (25 mM tris-HCl, pH 7.5, 2 mM EDTA, 1% NP-40, 1 mM DTT, 1 mM P MSF). The cells are stirred on ice for 15 minutes and then centrifuged at 5,000 rpms for 20 minutes.
# The centrifuged cell lysate is loaded onto a 2 mL glutathione-sepharose column (Pharmacia) and is washed thrice with 10 mL of 25 mM tris-HCl, pH 7.5, 2 mM EDTA, 1 mM DTT, 200 mM NaCl. The GST-tagged proteins are then eluted by 10 applications (1 mL each) of 25 mM tris-HCl, pH 7.5, 10 mM reduced-glutathione, 100 mM NaCl, 1 mM DTT, 10% glycerol and stored at −70° C.
# HDAC assays with purified GST-HDAC protein are carried out in a final volume of 30 μL containing 15 ng of GST-HDAC protein, 20 mM tris-HCl, pH 7.5, 1 mM MnCl2, 10 mM MgCl2, 1 mM DTT, 3 μg/mL poly(Glu,Tyr) 4:1, 1% DMSO, 2.0 μM ATP (γ-[^33P]-ATP 0.1 μCi). The activity is assayed in the presence or absence of inhibitors. […] Subsequently, […] of the reaction mixture are transferred onto EMMOBILON-PVDF membrane (Millipore) previously soaked for 5 minutes with methanol, rinsed with water, then soaked for 5 minutes with 0.5% H3PO4 and mounted on vacuum manifold with disconnected vacuum source. After spotting all samples, a vacuum is connected and each well rinsed with 200 μL 0.5% H3PO4. Membranes are removed and washed four times on a shaker with 1.0% H3PO4, once with ethanol. Membranes are counted after drying at ambient temperature, mounting in Packard TopCount 96-well frame, and addition of 10 μL/well of MICROSCINT™ (Packard).
# • Input: 3×4 μL stopped assay on IMMOBILON membrane, not washed • Background (3 wells): assay with H2O instead of enzyme • Positive control (4 wells): 3% DMSO instead of compound • Bath control (1 well): no reaction mix
# In each experiment, the actual inhibition by reference compound is used for normalization of IC50 values to the basis of an average value of the reference inhibitor:
# Normalized IC50=measured IC50 average ref. IC50/measured ref. IC50
# T1 sequence (Q13547 whole entry, species assumed): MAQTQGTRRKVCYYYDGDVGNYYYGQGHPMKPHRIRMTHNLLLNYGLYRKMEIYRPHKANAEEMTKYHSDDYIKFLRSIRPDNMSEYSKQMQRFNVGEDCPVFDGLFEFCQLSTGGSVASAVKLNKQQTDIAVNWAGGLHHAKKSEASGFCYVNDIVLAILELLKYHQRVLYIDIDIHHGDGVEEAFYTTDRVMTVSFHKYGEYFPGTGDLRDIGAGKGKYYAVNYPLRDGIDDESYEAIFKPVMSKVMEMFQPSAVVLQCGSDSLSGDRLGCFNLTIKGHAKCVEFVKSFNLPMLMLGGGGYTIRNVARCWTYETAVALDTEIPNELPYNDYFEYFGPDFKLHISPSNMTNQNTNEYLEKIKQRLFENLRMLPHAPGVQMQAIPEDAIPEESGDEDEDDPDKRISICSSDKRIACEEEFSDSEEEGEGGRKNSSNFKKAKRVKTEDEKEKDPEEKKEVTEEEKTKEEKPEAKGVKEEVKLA
row,SMILES,IC50
1,"O=C(/C=C/c1ccc(CN2CCOC(c3nc(-c4ccccc4)no3)C2)cc1)NO (centres unmarked) [Compound 25, (E)-N-Hydroxy-3-{4-[2-(3-phenyl-[1,2,4]oxadiazol-5-yl)-morpholin-4-ylmethyl]-phenyl}-acrylamide]",39 nM
2,"Cn1c(N2CCN(Cc3ccc(/C=C/C(=O)NO)cc3)CC2)cccc1=O [Compound 30, (E)-N-Hydroxy-3-{4-[4-(1-methyl-6-oxo-1,6-dihydro-pyridin-2-yl)-piperazin-1-ylmethyl]-phenyl}-acrylamide]",170 nM
3,O=C(/C=C/c1ccc(CN2CCC3(CC2)OC(=O)Nc2ccccc23)cc1)NO [Compound 34],32 nM
4,"O=C(/C=C/c1ccc(CN2CCC(c3cc4ccccc4o3)CC2)cc1)NO [Compound 35, (E)-3-[4-(4-Benzofuran-2-yl-piperidin-1-ylmethyl)-phenyl]-N-hydroxy-acrylamide]",46 nM
5,"COc1cc(Br)c2oc(C3CCN(Cc4ccc(/C=C/C(=O)NO)cc4)CC3)cc2c1 [Compound 36, (E)-3-{4-[4-(7-Bromo-5-methoxy-benzofuran-2-yl)-piperidin-1-ylmethyl]-phenyl}-N-hydroxy-acrylamide]",500 nM
6,"O=C(/C=C/c1ccc(CN2CCC3(CC2)NC(=O)N(CC2CC2)C3=O)cc1)NO [Compound 37, (E)-3-[4-(3-Cyclopropylmethyl-2,4-dioxo-1,3,8-triaza-spiro[4.5]dec-8-ylmethyl)-phenyl]-N-hydroxy-acrylamide]",< 430 nM
7,CS(=O)(=O)N1CC2(CCN(Cc3ccc(/C=C/C(=O)NO)cc3)CC2)c2ccccc21 [Compound 39],27 nM
8,"O=C(/C=C/c1ccc(CN2CCC(N3CCc4ccccc4C3=O)CC2)cc1)NO [Compound 41, (E)-N-Hydroxy-3-{4-[4-(1-oxo-3,4-dihydro-1H-isoquinolin-2-yl)-piperidin-1-ylmethyl]-phenyl}-acrylamide]",16 nM
9,"CN1C(=O)C2(CCN(Cc3ccc(/C=C/C(=O)NO)cc3)CC2)c2ccccc21 [Compound 43, (E)-N-Hydroxy-3-(4-((1-methyl-2-oxospiro[indoline-3,4′-piperidine]-1′-yl)methyl)phenyl)acrylamide]",24 nM
10,"O=C(/C=C/c1ccc(CN2CCC(N3CCNC3=O)CC2)cc1)NO [Compound 44, (E)-N-Hydroxy-3-{4-[4-(2-oxo-imidazolidin-1-yl)-piperidin-1-ylmethyl]-phenyl}-acrylamide]",50 nM
11,"O=C(/C=C/c1ccc(CN2CCC(CC(=O)NO)(c3ccc(Cl)cc3)CC2)cc1)NO [Compound 45, (E)-3-{4-[4-(4-Chloro-phenyl)-4-hydroxycarbamoylmethyl-piperidin-1-ylmethyl]-phenyl}-N-hydroxy-acrylamide]",110 nM
12,"O=C(/C=C/c1ccc(CN2CCOCC2)cc1)NO [Compound 47, (E)-N-Hydroxy-3-(4-morpholin-4-ylmethyl-phenyl)-acrylamide]",300 nM
13,"O=C(/C=C/c1ccc(CN2CCC3(CC2)OCCO3)cc1)NO [Compound 48, (E)-3-[4-(1,4-Dioxa-8-aza-spiro[4.5]dec-8-ylmethyl)-phenyl]-N-hydroxy-acrylamide]",130 nM
14,"O=C(/C=C/c1ccc(CN2CCC(Cc3ccccc3)CC2)cc1)NO [Compound 49, (E)-3-[4-(4-Benzyl-piperidin-1-ylmethyl)-phenyl]-N-hydroxy-acrylamide]",37 nM
15,"CC(C)(C)CC(=O)N1CCN(Cc2ccc(/C=C/C(=O)NO)cc2)CC1 [Compound 53, (E)-3-{4-[4-(3,3-Dimethyl-butyryl)-piperazin-1-ylmethyl]-phenyl}-N-hydroxy-acrylamide]",160 nM
16,"Cc1cccc(S(=O)(=O)N2CCN(Cc3ccc(/C=C/C(=O)NO)cc3)CC2)c1 [Compound 56, (E)-N-Hydroxy-3-{4-[4-(toluene-3-sulfonyl)-piperazin-1-ylmethyl]-phenyl}-acrylamide]",260 nM

# Second part, the compound after the results:
row,IC50,SMILES
1,2.2 nM,"O=C(CCc1ccc(CN2CCCC(c3c(-c4ccccc4)[nH]c4ccccc34)C2)cc1)NO (centres unmarked) [Compound 16, N-Hydroxy-3-{4-[3-(2-phenyl-1H-indol-3-yl)-piperidin-1-ylmethyl]-phenyl}-propionamide]"
2,150 nM,"CC1(C)c2[nH]c3ccccc3c2CCN1Cc1ccc(/C=C/C(=O)NO)cc1 [Compound 22, (E)-3-[4-(1,1-Dimethyl-1,3,4,9-tetrahydro-beta-carbolin-2-ylmethyl)-phenyl]-N-hydroxy-acrylamide]"
3,100 nM,"O=C(/C=C/c1ccc(CN2CCN(Cc3ccccc3)CC2)cc1)NO [Compound 26, (E)-3-[4-(4-Benzyl-piperazin-1-ylmethyl)-phenyl]-N-hydroxy-acrylamide]"
4,130 nM,"O=C(/C=C/c1ccc(CN2CCN(Cc3ccc(Br)cc3)CC2)cc1)NO [Compound 27, (E)-3-{4-[4-(4-Bromo-benzyl)-piperazin-1-ylmethyl]-phenyl}-N-hydroxy-acrylamide]"
5,170 nM,"CCOC(=O)N1CCN(Cc2ccc(/C=C/C(=O)NO)cc2)CC1 [Compound 28, 4-[4-((E)-2-Hydroxycarbamoyl-vinyl)-benzyl]-piperazine-1-carboxylic acid ethyl ester]"
6,140 nM,"O=C(/C=C/c1ccc(CN2CCN(C(=O)OCc3ccccc3)CC2)cc1)NO [Compound 29, 4-[4-((E)-2-Hydroxycarbamoyl-vinyl)-benzyl]-piperazine-1-carboxylic acid benzyl ester]"
7,231 nM,"O=C(/C=C/c1ccc(CN2CCN(c3nc4ccccc4n3C(=O)c3ccccc3)CC2)cc1)NO [Compound 31, (E)-3-{4-[4-(1-Benzoyl-1H-benzoimidazol-2-yl)-piperazin-1-ylmethyl]-phenyl}-N-hydroxy-acrylamide]"
8,100 nM,"O=C(/C=C/c1ccc(CN2CCCCC2)cc1)NO [Compound 33, (E)-N-Hydroxy-3-(4-piperidin-1-ylmethyl-phenyl)-acrylamide]"
9,110 nM,"O=C(/C=C/c1ccc(CN2CCC3(CCc4ccccc4O3)CC2)cc1)NO [Compound 38, (E)-N-Hydroxy-3-(4-(spiro[chroman-2,4′-piperidine]-1′-ylmethyl)phenyl)acrylamide]"
10,27 nM,"O=C(/C=C/c1ccc(CN2CCC(c3ccc(Cl)cc3CN3CCCC3=O)CC2)cc1)NO [Compound 40, (E)-3-(4-{4-[4-Chloro-2-(2-oxo-pyrrolidin-1-ylmethyl)-phenyl]-piperidin-1-ylmethyl}-phenyl)-N-hydroxy-acrylamide]"
11,70 nM,"CC(=O)N(C)CC1(c2ccccc2)CCN(Cc2ccc(/C=C/C(=O)NO)cc2)CC1 [Compound 42, (E)-3-(4-{4-[(Acetyl-methyl-amino)-methyl]-4-phenyl-piperidin-1-ylmethyl}-phenyl)-N-hydroxy-acrylamide]"
12,230 nM,"O=C(/C=C/c1ccc(CN2CCN(S(=O)(=O)c3ccccc3)CC2)cc1)NO [Compound 50, (E)-3-[4-(4-Benzenesulfonyl-piperazin-1-ylmethyl)-phenyl]-N-hydroxy-acrylamide]"
13,110 nM,"O=C(/C=C/c1ccc(CN2CCN(C(=O)c3ccccc3)CC2)cc1)NO [Compound 51, (E)-3-[4-(4-Benzoyl-piperazin-1-ylmethyl)-phenyl]-N-hydroxy-acrylamide]"
14,350 nM,"CCC(=O)N1CCN(Cc2ccc(/C=C/C(=O)NO)cc2)CC1 [Compound 52, (E)-N-Hydroxy-3-[4-(4-propionyl-piperazin-l-ylmethyl)-phenyl]-acrylamide]"
15,130 nM,"O=C(/C=C/c1ccc(CN2CCN(C(=O)C3CCCCC3)CC2)cc1)NO [Compound 54, (E)-3-[4-(4-Cyclohexanecarbonyl-piperazin-1-ylmethyl)-phenyl]-N-hydroxy-acrylamide]"
16,230 nM,"Cc1ccc(S(=O)(=O)N2CCN(Cc3ccc(/C=C/C(=O)NO)cc3)CC2)cc1 [Compound 55, (E)-N-Hydroxy-3-{4-[4-(toluene-4-sulfonyl)-piperazin-1-ylmethyl]-phenyl}-acrylamide]"
